Results: US11071730B2, “Substituted 6-azabenzimidazole compounds” (Gilead Sciences, Inc., priority 2018, dated 2021)

target: human HPK1 (MAP4K1) (Homo sapiens (Human), UniProt Q92918); assay: HPK1 IC50 Assay (TR-FRET biochemical kinase assay, STK S1 peptide substrate); settings: recombinant human HPK1 kinase domain 0.15 nM, 10 μM ATP, 1 μM STK S1 peptide; geometric mean
Description: The enzymatic activity of human HPK1 (MAP4K1) was monitored in a biochemical assay in the presence or absence of compounds and using a synthetic peptide substrate. An increase in phosphorylation of the peptide by HPK1 was indicative of its kinase activity.
Recombinant HPK1 kinase domain produced via baculovirus infection of insect cells was obtained from Proteros (Proteros Biostructures #PR-0322) and was pre-activated in the presence of 2 mM ATP (Sigma-Aldrich, cat #GE27-2056-01) and 2 mM magnesium chloride for 16 hours at 4° C. The protein reaction mixture was then loaded to a desalting column (Thermo Fisher Scientific, Cat #89889) to remove excess ATP. HPK1 was eluted with buffer containing 20 mM Tris (2-Amino-2-(hydroxymethyl)propane-1,3-diol) pH 8.0, 150 mM NaCl, 2 mM dithiothreitol and 5% glycerol, and was frozen at −80° C. for later use.
Ten nanoliters of test compounds dissolved in DMSO at various concentrations were dispensed into a 384-well ProxiPlate (PerkinElmer #6008289). Five microliters of a solution of recombinant HPK1 diluted in HPK1 kinase assay buffer (50 mM BES [N,N-Bis(2-hydroxyethyl)-2-aminoethanesulfonic acid], pH 7.0; 10 mM magnesium chloride; 0.01% Triton X-100; 1 mM dithiothreitol; 0.01% bovine serum albumin; 0.1 mM sodium orthovanadate) was added to the compound-containing plate and was incubated for 15 minutes at 25° C. Five microliters of a mixture of ATP (Sigma-Aldrich #A6559) and peptide substrate STK S1 (Cisbio #61ST1BLC) diluted in HPK1 kinase assay buffer was then added to start the reaction. Final concentrations were 0.15 nM for HPK1, 10 μM for ATP, and 1 μM for the STK S1 peptide substrate. The reaction mixture was incubated at 25° C. for 3 hours and was stopped with the addition of 10 μl of an EDTA (Ethylenediaminetetraacetic acid)-containing detection buffer (Cisbio #62SDBRDF) supplemented with Europium cryptate-labeled anti-phospho-serine/threonine antibodies (Cisbio #62ST1PEJ) and XL665-labeled streptavidin (Cisbio #610SAXLG). The mixture was incubated for 16 hours at room temperature and peptide phosphorylation was measured by time-resolved fluorescence energy transfer (665 nm/620 nm) on an Envision plate reader (PerkinElmer).
Data in Table 1 were normalized based on positive (staurosporine) and negative (DMSO) controls. Least squares curve fittings were performed using a four-parameter variable slope nonlinear regression model. IC50 is defined as the concentration of compound required to inhibit 50% of maximum phosphorylation. IC50 values from multiple experiments were averaged by geometric mean and the standard deviation was calculated.

Chain of human HPK1 (MAP4K1) (Q92918 17-274): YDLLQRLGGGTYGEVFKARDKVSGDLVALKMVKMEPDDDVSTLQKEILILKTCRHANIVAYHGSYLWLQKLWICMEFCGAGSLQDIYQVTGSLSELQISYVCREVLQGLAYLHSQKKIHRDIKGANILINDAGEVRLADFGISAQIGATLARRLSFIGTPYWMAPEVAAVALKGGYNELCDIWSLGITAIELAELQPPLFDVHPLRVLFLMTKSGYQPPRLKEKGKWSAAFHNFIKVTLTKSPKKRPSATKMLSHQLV

In order of falling IC50:
1. CC(=O)N1CCC2(CC1)C(=O)N([C@H]1C[C@@H](N3CC4CC4C3)C1)c1cc(-c3cc4ncn(C(C)C)c4c(Nc4ccncc4F)n3)ccc12 (stereo partly shown) [Example 180]  1.3 nM
2. CC(C)n1cnc2cc(-c3ccc4c(c3)N([C@H]3C[C@@H](N5CC(C)(C)C5)C3)C(=O)C43CCN(C4COC4)CC3)nc(Nc3ccncc3F)c21 [Example 176]  0.8 nM
3. CC(C)n1cnc2cc(-c3ccc4c(c3)N([C@H]3C[C@@H](N5CCCCC5)C3)C(=O)C43CCN(C4COC4)CC3)nc(Nc3ccncc3F)c21 [Example 174, 6-(4-((3-fluoropyridin-4-yl)amino)-3-isopropyl-3H-imidazo[4,5-c]pyridin-6-yl)-1′-(oxetan-3-yl)-1-((1s,3s)-3-(piperidin-1-yl)cyclobutyl)spiro[indoline-3,4′-piperidin]-2-one]  0.5 nM
4. CC(C)n1cnc2cc(-c3ccc4c(c3)N([C@H]3C[C@@H](N5CCC(C)(C)C5)C3)C(=O)C43CCN(C(=O)[C@@H](C)O)CC3)nc(Nc3ccncc3F)c21 [Example 120]  0.5 nM
5. CC(C)n1cnc2cc(-c3ccc4c(c3)N([C@H]3C[C@@H](N5CCCCC5)C3)C(=O)C43CCN(C(=O)C(C)(C)C#N)CC3)nc(Nc3ccncc3F)c21 [Example 141]  0.3 nM
6. CC(C)n1cnc2cc(-c3ccc4c(c3)N([C@H]3C[C@@H](N5CCCC6(CC6)C5)C3)C(=O)C43CCN(C(=O)CO)CC3)nc(Nc3ccncc3F)c21 [Example 121]  0.2 nM
7. CC(C)n1cnc2cc(-c3ccc4c(c3)N([C@H]3C[C@@H](N5CC6CCC(C6)C5)C3)C(=O)C43CCN(C(=O)[C@@H](C)O)CC3)nc(Nc3ccncc3F)c21 [Example 126]  0.1 nM
8. CC(C)n1cnc2cc(-c3ccc4c(c3)N([C@H]3C[C@@H](N5CC6CCC(C6)C5)C3)C(=O)C43CCN(C(=O)C4(C)COC4)CC3)nc(Nc3ccncc3F)c21 [Example 123]  0.1 nM

same assay, conditions: recombinant human HPK1 kinase domain 0.15 nM, 10 μM ATP, 1 μM STK S1 peptide; geometric mean of multiple experiments

In order of falling IC50:
1. CC(C)n1cnc2cc(-c3ccc4c(c3)N([C@H]3C[C@@H](N5CCCCC5)C3)C(=O)[C@@]4(C)O)nc(Nc3ccncc3F)c21 [Example 55A, 6-(4-((3-fluoropyridin-4-yl)amino)-3-isopropyl-3H-imidazo[4,5-c]pyridin-6-yl)-3-hydroxy-3-methyl-1-((1s,3s)-3-(piperidin-1-yl)cyclobutyl)indolin-2-one]  1.2 nM
2. CC(=O)N1CCC2(CC1)C(=O)N([C@H]1C[C@@H](N3CCCCC3)C1)c1cc(-c3cc4ncn(C(C)C)c4c(Nc4cc(C)ncc4F)n3)ccc12 [Example 31]  1.1 nM
3. CC(C)n1cnc2cc(-c3ccc4c(c3)N([C@H]3C[C@@H](N5CCCCC5)C3)C(=O)C43CCN(C(=O)C4(C)CCOCC4)CC3)nc(Nc3ccncc3F)c21 [Example 1, 6-(4-((3-fluoropyridin-4-yl)amino)-3-isopropyl-3H-imidazo[4,5-c]pyridin-6-yl)-1′-(4-methyltetrahydro-2H-pyran-4-carbonyl)-1-((1s,3s)-3-(piperidin-1-yl)cyclobutyl)spiro[indoline-3,4′-piperidin]-2-one]  0.6 nM
4. CC(C)n1cnc2cc(-c3ccc4c(c3)N([C@H]3C[C@@H](N5CCC6(CC6)C5)C3)C(=O)C43CCN(C(=O)C4(C)COC4)CC3)nc(Nc3ccncc3F)c21 [Example 5]  0.5 nM
5. CC(C)n1cnc2cc(-c3ccc4c(c3)N([C@H]3C[C@@H](N5CCCC(C)(F)C5)C3)C(=O)C43CCN(C4COC4)CC3)nc(Nc3ccncc3F)c21 (stereo partly shown) [Example 80]  0.4 nM
6. CC(C)n1cnc2cc(-c3ccc4c(c3)N([C@H]3C[C@@H](N5CCCCC5)C3)C(=O)C4(C)C)nc(Nc3ccnc(F)c3F)c21 [Example 94]  0.3 nM
7. CC(C)n1cnc2cc(-c3ccc4c(c3)N([C@H]3C[C@@H](N5C[C@@H](C)[C@@H](C)C5)C3)C(=O)C43CCN(C(=O)C4(C)COC4)CC3)nc(Nc3ccncc3F)c21 [Example 8]  0.2 nM
8. CCn1cnc2cc(-c3ccc4c(c3)N([C@H]3C[C@@H](N5CCCCC5)C3)C(=O)C43CCN(C(=O)[C@@H](C)O)CC3)nc(Nc3ccc(F)nc3F)c21 [Example 73]  0.2 nM
